Measured values from article PMC6283615, “Anilinoquinoline based inhibitors of trypanosomatid proliferation” (PLoS Neglected Tropical Diseases, 2018).
In brackets after ≈: the same amount, converted by molar mass. Like-named read-outs stand apart in the source and are kept apart here.

Key:
[1] = tested on: T. cruzi amastigote (Tulahuen strain expressing β-galactosidase); experiment: Intracellular T. cruzi assay in 3T3 cells (beta-galactosidase, 96 h); type: cell-based, Trypanosoma cruzi; conditions: read-out: T. cruzi amastigote EC50
Procedure: In a 96-well plate, 5×10^4 3T3 cells in DMEM without phenol red supplemented with 2% FBS were added to each well. Cells were incubated for 2 h to allow for attachment. Compounds were added in triplicates at 50 μM and in serial dilutions 1:2. To each well, 5×10^4 T. cruzi trypomastigotes (Tulahuen strain expressing β-galactosidase) were added and incubated at 37°C, 5% CO2 for 96 h. Following incubation, 50 μL of 500 μM chlorophenol Red-β-D-galactopyranoside (CPRG) in phosphate-buffered saline with 0.5% NP40 was added to each well and incubated at 37°C, 5% CO2 for 4 h. Absorbance was read at 590–595 nm.

LogD7.4 = type: physicochemical; conditions: pH 7.4
[2] = Rat hepatocyte intrinsic clearance; type: in vitro ADME; conditions: for hepatocyte CLint: hepatocytes
L. major amastigote = experiment: L. major intracellular amastigote luciferase assay in RAW 264.7 macrophages; type: cell-based, Leishmania major; conditions: intracellular amastigotes in RAW 264.7 macrophages, 96 h
Procedure: Amastigote assays were performed using pLEXSY-hyg2-luciferase L. major transfected promastigotes and the murine RAW 264.7 macrophage cell line (ATCC TIB-71, Manassas, VA). Briefly, luciferase-expressing promastigotes of each Leishmania species were generated by adding a luciferase encoding region to the pLEXSY-hyg2 vector (Jena Biosciences, Germany) as described. One μg of the linearized pLEXSY-hyg2-luciferase vector were electroporated (480 V, 13 Ω, and 500 μF) into 4×10^7 Leishmania promastigotes. Selection for stable promastigote transfectants was carried out using hygromycin B (100 μg/mL). RAW 264.7 macrophages were maintained in growth medium (Dulbecco’s Modified Eagle’s Medium supplemented with heat-inactivated 10% FBS (Life Technologies)). Cells were harvested and resuspended in growth medium at 2.0×10^5 cells/mL, and 1×10^4 cells/well were dispensed (final volume 50 μL) in each well of a 384 well tissue-culture treated white plate using a EVO Freedom liquid handling system (Tecan, Durham, NC). Plates were incubated at 37°C in 5% CO2 for 24 h after which the culture medium was removed from each well using the EVO Freedom liquid handler. Metacyclic phase pLEXSY-hyg2-luciferase-Leishmania promastigotes (MOI = 1:10 L. major) were added to each assay plate well and allowed to infect the RAW 264.7 macrophages. After an overnight incubation, the growth medium was aspirated and each well was washed three times with 40 μL of fresh growth medium to remove non-internalized promastigotes. After the third wash, 69.2 μL of growth medium was added to each well. Compound dilutions (final concentration ranges 0.5–10,000 ng/mL) were generated and dispensed using the liquid handling system. Compound treated plates were incubated at 37°C in 5% CO2 for 96 h. After incubation, 7.5 μL of a luciferin solution (Caliper Life Science, Waltham, MA) diluted to 150 μg/mL was added to each well, and the plates were incubated for 30 min at 37°C in the dark. Data were captured using an Infinite M200 plate reader (Tecan). EC50s were generated for each concentration response test using GraphPad Prism software 6.0.

[3] = tested on: T. b. brucei (strain 427); experiment: T. b. brucei proliferation assay (PrestoBlue, 48 h); type: cell-based, Trypanosoma brucei brucei; conditions: Trypanosoma brucei
Procedure: The assay was performed following a previously reported procedure. Briefly, in a 96-well plate, compounds were added in triplicates at 50 μM and in serial dilutions 1:2 in HMI-9 medium. To each well, 100 μL of 2.5×10^3 T. b. brucei (strain 427, received as a gift from Dr. C. C. Wang at UCSF) in HMI-9 medium was were added and incubated at 37°C, 5% CO2 for 48 h. Following incubation, 20 μL of PrestoBlue were added to each well and incubated for additional 4 h. Fluorescence was read at 530 nm excitation and 590 nm emission.

Aqueous solubility = type: physicochemical
[4] = Human plasma protein binding; type: in vitro ADME; conditions: for fraction unbound: read-out: Human PPB (converted)
[5] = Human liver microsome intrinsic clearance; type: in vitro ADME; conditions: liver microsomes
[6] = intracellular in 3T3 cells, 96 h
[7] = Trypanosoma cruzi, TULAHUEN, NIH3T3, 96 h

Row | Compound | EC50 [1, 6] | LogD7.4 (LogD7.4) | Rat Hepatocyte CLint [2] | EC50 (L. major amastigote; Leishmania major, RAW264.7) | EC50 [3] | EC50 [1, 7] | solubility (Aqueous solubility) | fraction unbound [4] | logD (LogD7.4) | EC50 (L. major amastigote) | Human PPB [4] | microsomal CLint [5] | hepatocyte CLint [2]
1 | CN1CCN(c2nccc(Nc3ccc4c(Nc5cnccn5)ccnc4c3)n2)CC1 [NEU-2094] | > 50 µM | 2.9 |  |  |  |  |  |  |  |  |  |  | 
2 | CN1CCN(c2ccnc(Nc3ccc4c(Nc5cnccn5)ccnc4c3)n2)CC1 [NEU-2091] | > 20 µM | 2.8 | 9.3 μL/min/10^6 cells |  |  |  |  |  |  |  |  |  | 
3 | COc1cnc(Nc2ccnc3cc(-c4ccc(S(=O)(=O)N5CCN(C)CC5)cc4)ccc23)cn1 [Compound 3] |  |  |  | 19 µM | 0.62 µM | 9.7 µM | 3.2 µM (≈ 1.57 µg/mL) | 0.03 | 4.2 |  |  |  | 
4 | CN1CCN(c2ccc(Nc3ccc4c(Nc5cnccn5)ccnc4c3)cc2)CC1 [NEU-2096] |  | 2.2 | 10 μL/min/10^6 cells |  |  |  |  |  |  | 7.9 µM | 88% |  | 
5 | CN1CCN(c2ccnc(Nc3ccc4c(Nc5ccc(OCc6cccc(F)c6)c(Cl)c5)ccnc4c3)n2)CC1 [Compound 19] |  |  |  | 2.5 µM | 0.12 µM | 2.7 µM | 1 µM (≈ 0.57 µg/mL) |  | 4.7 |  |  | 21 µL/min/mg | 4.6 µL/min/1e6 cells
6 | C[C@@H]1[C@H](O)[C@@H](C)/C=C/C=C/C=C/C=C/C=C/C=C/C=C/[C@H](O[C@@H]2O[C@H](C)[C@@H](O)[C@H](N)[C@@H]2O)C[C@@H]2O[C@](O)(C[C@@H](O)C[C@@H](O)[C@H](O)CC[C@@H](O)C[C@@H](O)CC(=O)O[C@H]1C)C[C@H](O)[C@H]2C(=O)O [Amphotericin B, reference compound] |  |  |  | 0.036 µM |  | 0.48 µM |  |  |  |  |  |  | 
7 | COc1ccc(Nc2ccnc3cc(-c4ccc(S(=O)(=O)N5CCN(C)CC5)cc4)ccc23)cc1 [Compound 9] |  |  |  | 4.4 µM | 0.52 µM | 1.9 µM | 9 µM (≈ 4.4 µg/mL) |  | 4.2 |  |  | 350 µL/min/mg | 58 µL/min/1e6 cells
8 | CN1CCN(S(=O)(=O)c2ccc(-c3ccc4c(Nc5cnccn5)ccnc4c3)cc2)CC1 [Compound 4] |  |  |  | 20 µM | 0.91 µM | 16 µM | 4.2 µM (≈ 1.93 µg/mL) | 0.06 | 3.2 |  |  |  | 
9 | CN1CCN(S(=O)(=O)c2ccc(-c3ccc4c(Nc5ccc(Cl)cn5)ccnc4c3)cc2)CC1 [Compound 5] |  |  |  | 2.1 µM | 0.27 µM | 2.8 µM | < 1 µM | < 0.01 |  |  |  |  | 
10 | CN1CCN(S(=O)(=O)c2ccc(-c3ccc4c(Nc5ccc(OC(F)(F)F)cc5)ccnc4c3)cc2)CC1 [Compound 10] |  |  |  | 0.78 µM | 0.27 µM | 1.4 µM |  | < 0.01 | 4.5 |  |  | 280 µL/min/mg | 79 µL/min/1e6 cells
11 | CN1CCN(c2ncc(Nc3ccc4c(Nc5ccc(OCc6cccc(F)c6)c(Cl)c5)ccnc4c3)cn2)CC1 [Compound 18] |  |  |  | 0.87 µM | 0.16 µM | 2.7 µM |  |  |  |  |  |  | 
12 | CN1CCN(S(=O)(=O)c2cccc(-c3ccc4c(Nc5ccc(OCc6cccc(F)c6)c(Cl)c5)ccnc4c3)c2)CC1 [Compound 13] |  |  |  | 0.2 µM | 0.48 µM | > 50 µM | < 1 µM | < 0.01 | 4.8 |  |  | 110 µL/min/mg | 24 µL/min/1e6 cells
13 | CN1CCN(S(=O)(=O)c2ccc(-c3ccc4c(Nc5cccc(Cl)c5)ccnc4c3)cc2)CC1 [Compound 7] |  |  |  | 3.4 µM | > 50 µM | > 50 µM |  | < 0.01 |  |  |  | 150 µL/min/mg | 15 µL/min/1e6 cells
14 | CN1CCN(c2ccc(Nc3ccc4c(Nc5ccc(OCc6cccc(F)c6)c(Cl)c5)ccnc4c3)cc2)CC1 [Compound 17] |  |  |  | 1.2 µM | 0.12 µM | 2.1 µM |  |  |  |  |  |  | 
15 | CN1CCN(c2nccc(Nc3ccc4c(Nc5ccc(OCc6cccc(F)c6)c(Cl)c5)ccnc4c3)n2)CC1 [Compound 20] |  |  |  | 1.2 µM | 0.098 µM | 4.3 µM |  |  |  |  |  |  | 
16 | COc1ncc(Nc2ccnc3cc(-c4ccc(S(=O)(=O)N5CCN(C)CC5)cc4)ccc23)cn1 [Compound 2] |  |  |  | 3.1 µM | 2.5 µM | > 50 µM | 7.3 µM (≈ 3.58 µg/mL) | 0.12 | 3.1 |  |  |  | 
17 | Cc1ccc(Nc2ccnc3cc(-c4ccc(S(=O)(=O)N5CCN(C)CC5)cc4)ccc23)cc1Cl [Compound 8] |  |  |  | 2.4 µM | 0.65 µM | > 50 µM |  |  |  |  |  | 290 µL/min/mg | 
18 | CN1CCN(S(=O)(=O)c2ccc(-c3ccc4c(Nc5ccc(C(F)(F)F)nc5)ccnc4c3)cc2)CC1 [Compound 12] |  |  |  | 6.2 µM | 0.7 µM | 5.4 µM |  | 0.02 | 4.4 |  |  | 390 µL/min/mg | 260 µL/min/1e6 cells
19 | Cc1ccc(Nc2ccnc3cc(-c4ccc(S(=O)(=O)N5CCN(C)CC5)cc4)ccc23)cn1 [Compound 11] |  |  |  | 3.9 µM | 0.69 µM | 9.9 µM |  | 0.08 | 3.7 |  |  | 400 µL/min/mg | 49 µL/min/1e6 cells
